Reference: a melting point compilation (Tetko et al.; mined from patent text by program, amines drawn as free bases though some values may be those of a salt)
Residues, ends and D or L forms follow the SMILES beside them. *: point of attachment. Boc = CC(C)(C)OC(=O)*; OBn = c1ccc(CO*)cc1; Bn = c1ccc(C*)cc1

Row | Structure (SMILES) | melting point [°C]
1 | O=C1c2ccc([N+](=O)[O-])cc2CC1Br (stereo unspecified) | 88.5 to 90.5
2 | COc1cc2c(c([N+](=O)[O-])c1O)C(=O)c1ccccc1C2=O | 296 to 297
3 | CCCCCCCCCCCCCCCCO[C@@H]1CCCO[C@H]1COP(=O)([O-])OCC[N+](C)(C)C (relative stereo) | 85 to 92
4 | COC(=O)c1ccoc1CCNC(=O)C[C@H]1O[C@H](c2cccc(OC)c2OC)c2cc(Cl)ccc2N(CC(C)(C)CO)C1=O | 81 to 83
5 | O=C1CCc2cc(Cl)ccc2C1 | 121 to 122
6 | CCOC(=O)c1c(-c2ccc(F)cc2)oc(-c2ccc(F)cc2)cc1=O | 113 to 114
7 | COc1cc(C=O)cc(C(F)(F)F)c1O | 151 to 152
8 | CC(NC(=O)C(Cc1ccc(OCc2ccccc2)cc1)NC(=O)OC(C)(C)C)C(=O)NCC(=O)OCc1ccccc1 (stereo not drawn) (Boc-Tyr(Bn)-Ala-Gly-OBn; configuration not given here) | 145 to 147
9 | C1CNCCNCCCNCCNCCNC1 | 49 to 51
10 | COc1ccc(S(=O)(=O)N2Cc3ccccc3N(C(=O)c3cccc(C(F)(F)F)c3)CC2C(=O)NO)cc1 (stereo unspecified) | 128 to 130
11 | COc1ccc(F)c2c(O)c3cnccc3cc12 | > 210
12 | CN1CCC(=C2c3c(ccn3C)C=Cn3cnnc32)CC1 | 262
13 | CCN(CC)c1nc(Cl)nc2ccccc12 | 68 to 70
14 | CS(=O)(=O)Nc1ccc(OCC2CCNCC2)cc1 | 180 to 183
15 | ClCOc1ccc(-c2ccc(Cl)cc2)cc1 | 68 to 70
16 | COC(=O)c1cc(OC(=S)N(C)C)c2cc(-c3ccc(OC)c(C45CC6CC(CC(C6)C4)C5)c3)ccc2c1C | 137 to 138
17 | c1csc(-c2nc(COc3ccc(CCCCn4ccnc4)cc3)co2)c1 | 106 to 107
18 | CCC(Oc1ccc(Cl)c(C)c1)C(=O)NCc1ccccc1Cl (stereo unspecified) | 107 to 109
19 | CC(=O)NC[C@H]1CN(c2cc(F)c(N3CCN(C(=O)CO)CC3)c(F)c2)C(=O)O1 | 160 to 162
20 | Oc1ccc(O)c(-c2noc3cc(O)ccc23)c1 | 215 to 217
21 | CC(C)(C)OC(=O)NC[C@@H]1CNC(=O)O1 | 116
22 | N#Cc1c(N2CCc3ccccc3CC2)nc(CCOC2CCCCO2)[nH]c1=O (stereo unspecified) | 185 to 187
23 | COc1ccc(-c2c3c(cc4ccc5c(c24)OCO5)C(=O)NC3=O)cc1 | 311 to 313
24 | CCCSc1sc(C(=O)O)c2c1-c1c(cnn1C)CC2 | 216 to 217

Row | Structure (SMILES) | melting point [°C]
25 | CC(CN(C)C)N1c2ccccc2Sc2ccc(C(=O)NCc3ccccc3F)cc21 (racemic) | 130
26 | Cc1ccc(C(=S)c2c(C)cc(Cc3ccc(N)cc3F)n2C)cc1 | 199 to 200
27 | CCOC(=O)C1=C(C)N=C(SCc2ccc(OC)cc2)N(C(=O)OCC)C1c1ccccc1SC (stereo unspecified) | 87 to 89
28 | Brc1cccc(C2Cc3cnc(Nc4ccc(CCNCCN5CCOCC5)cc4)nc3-c3ccccc32)c1 (stereo unspecified) | 85 to 87
29 | CNc1cc(Cl)cc(Cl)c1[N+](=O)[O-] | 120
30 | CN(Cc1ccccc1)c1ccc(C(=O)c2ccccc2)cc1N | 93 to 94
31 | CNc1n[nH]c(=O)n1N | 214
32 | O=C(NO)C(CC(=O)N1CCOCC1)NS(=O)(=O)c1ccc(-c2ccc(Cl)cc2)cc1 (stereo unspecified) | 139 to 141
33 | CCCCC(=O)Nc1nc2ccc(Cl)cc2nc1NC(=O)CCCC | 171 to 173
34 | CCOC(=O)c1c(-c2ccccc2Cl)c2cc(CC)ccc2[nH]c1=O | 199 to 200
35 | COCC1(C)CCCOc2cc(C#Cc3ccc(C(=O)O)cc3)ccc21 (stereo unspecified) | 112
36 | O=c1[nH]c(=Cc2cccs2)c(=O)[nH]c1=Cc1ccc(OCc2ccccc2)cn1 | 215 to 217
37 | NN=C1CCCCC1n1nc(-c2c(-c3ccccc3)nn3ccccc23)ccc1=O (stereo unspecified) | 161 to 162
38 | COc1cc(NC(C)=O)c2c3c(c4ccccc4nc13)C=CN2 | 128 to 132
39 | COc1ccc(C(=[N+]=[N-])c2ccc(OC)cc2)cc1 | 85
40 | c1ccc([C@@]23O[C@@H]2CCc2ccccc23)cc1 | 124 to 126
41 | COC(=O)c1sc2ccc(NC=O)cc2c1N | 202 to 204
42 | COC(=O)CCCOc1cc([N+](=O)[O-])c(CBr)cc1OC | 68 to 70
43 | OCCCCc1cn(C(c2ccccc2)(c2ccccc2)c2ccccc2)cn1 | 144 to 146
44 | OC(c1ccc2c(c1)CCN2)(C(F)(F)F)C(F)(F)F | 161 to 162
45 | Cn1cc(-c2cccc(S(=O)(=O)n3ccc(/C=C/C(=O)NO)c3)c2)cn1 | 155 to 160
46 | NS(=O)(=O)c1cc(C(=O)O)cc(SCc2ccccc2)c1Cl | 241 to 242
47 | Cc1cc2cc(CN3CCCC3)cnc2cc1NC(=O)c1ccc(-c2ccc3ccccc3c2)cc1 | 194
48 | O=C1CCCCN1[C@@H]1c2cc(C(F)(F)C(F)(F)C(F)(F)F)ccc2OC(CF)(CF)[C@H]1O (relative stereo) | 156 to 157

Row | Structure (SMILES) | melting point [°C]
49 | O=C(O)c1cnc2c3ccccc3ccn2c1=O | 219 to 231
50 | Cc1c[nH]c(-c2ccc(F)cc2)c1-c1ccc(F)cc1 | 126 to 127
51 | O=C(O)c1cccc(OCc2ccc(Cl)cc2Cl)c1OCc1ccccc1 | 151 to 153
52 | Nc1ccc(Oc2c(Cl)cc(C(F)(F)F)cc2Cl)cc1 | 128 to 130
53 | COCc1nc2c(N)nc3cc(CCC(=O)N(C)C)ccc3c2n1CC(C)(C)O | 142 to 145
54 | Cc1ncc(C=O)c(N)n1 | 191 to 192
55 | Cc1ccc(S(=O)(=O)NC(=O)C(C)c2ccc3cc(OCc4ccc5ccccc5n4)ccc3c2)cc1 (stereo unspecified) | 201 to 205
56 | Cn1cccc1C(=O)C(C#N)C(=O)Nc1ccc(F)cc1 (stereo unspecified) | 198 to 199
57 | COC(=O)C(Cc1ccccc1)Cc1ccc(OCCn2c(=O)sc3cc(C(=O)c4ccccc4)ccc32)cc1 (stereo unspecified) | 65 to 67
58 | COC(=O)c1c(C)nc(C)c(C(=O)OCC2CCCO2)c1-c1cccc(O)c1 (stereo unspecified) | 95 to 97
59 | COCCOc1ccc2cc3ccccc3cc2c1C=O | 114 to 117
60 | COc1cccc(CNC(=O)c2nc3cccc(O)c3c(=O)[nH]2)c1 | 187 to 189
61 | CCOc1c(C=NOCc2ccccc2)c(=O)n(C)c(=O)n1C | 93 to 94
62 | CCc1cc(Oc2ccc(S(C)(=O)=O)nc2)cc2cc(C3=NCC(CC(=O)N4CCS(=O)CC4)S3)[nH]c12 (stereo unspecified) | 194 to 196
63 | CCCc1nc2c(N)nc3ccccc3c2n1CC(C)(C)CC1(C)OCCO1 | 186 to 188
64 | CCOC(=O)N1CCN(CC2CSC3=C(O2)c2ccccc2C(=O)C3=O)CC1 (stereo unspecified) | 185 to 187
65 | CCCCCCCCCCOc1ccc(CC(C)NCC(O)c2cccc(Cl)c2)cc1 (stereo unspecified) | 59 to 61
66 | CCc1ccnc(C(=O)c2[nH]c3ccc(Cl)cc3c2CC(=O)O)c1Cl | 220
67 | CC1(C)c2ccc([N+](=O)[O-])cc2[C@@H](NC(=O)NCc2ccccc2)[C@@H]1O (relative stereo) | 202 to 204
68 | O=Cc1ccccc1-c1ccc(C(=O)Nc2ccc3cccnc3c2)cc1 | 258 to 260
69 | OC(CNc1cc(Cl)c(Cl)cc1Cl)Cn1ccnc1 (stereo unspecified) | 156 to 158
70 | COC(=O)c1ccc(C(=O)OC)c(S(N)(=O)=O)c1 | 165 to 170
71 | CSc1ccc(-c2csc(NC(C)=O)n2)cc1 | 235 to 236
